Source: US20230348442A1, “GALECTIN-3 INHIBITING 2-HYDROXYCYCLOALKANE-1-CARBAMOYL DERIVATIVES” (Idorsia Pharmaceuticals Ltd, priority 2020, published 2023)

Target: human Gal-3 (hGal-3) (Homo sapiens (Human), UniProt P17931)
Assay: competitive binding assay: binding of biotinylated hGal-3 to microplate-adsorbed asialofetuin (ASF), spectrophotometric
Details: Activity on hGal-3; mean values of several measurements
Procedure, shortened: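 For hGal-1, a variant with all six cysteines replaced by serines is preferred. Either galectin, biotinylated at 300-1000 ng/mL, competes with compound for microplate-bound ASF over 3 h at 4° C; peroxidase/ABTS detection gives IC50, averaged.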

human Gal-3 (hGal-3), sequence (P17931 whole entry): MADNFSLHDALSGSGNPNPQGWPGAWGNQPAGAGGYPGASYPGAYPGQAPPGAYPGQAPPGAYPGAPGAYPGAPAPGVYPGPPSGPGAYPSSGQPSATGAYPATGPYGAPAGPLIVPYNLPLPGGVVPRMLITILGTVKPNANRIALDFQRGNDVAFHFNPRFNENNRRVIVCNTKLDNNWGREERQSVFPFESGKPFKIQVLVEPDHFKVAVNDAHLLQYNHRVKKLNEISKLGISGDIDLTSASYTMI

Molecule | IC50 [nM]
CO[C@@H]1[C@@H](n2cc(-c3cc(F)c(Cl)c(Cl)c3)nn2)[C@@H](O)[C@@H](CO)O[C@H]1C(=O)N(c1cc(Br)cc(C#N)c1)[C@H]1CC[C@@H]1O [Example 2.17.5, (2R,3R,4S,5R,6R)-N-(3-bromo-5-cyanophenyl)-4-(4-(3,4-dichloro-5-fluorophenyl)-1H-1,2,3-triazol-1-yl)-5-hydroxy-N-((1S,2S)-2-hydroxycyclobutyl)-6-(hydroxymethyl)-3-methoxytetrahydro-2H-pyran-2-carboxamide] | 56
CO[C@@H]1[C@@H](n2cc(-c3cc(F)c(Cl)c(Cl)c3)nn2)[C@@H](O)[C@@H](CO)O[C@H]1C(=O)N(c1cc(Br)cc(C#N)c1)[C@@H]1CC[C@H]1O [Example 2.17.5R, (2R,3R,4S,5R,6R)-N-(3-bromo-5-cyanophenyl)-4-(4-(3,4-dichloro-5-fluorophenyl)-1H-1,2,3-triazol-1-yl)-5-hydroxy-N-((1R,2R)-2-hydroxycyclobutyl)-6-(hydroxymethyl)-3-methoxytetrahydro-2H-pyran-2-carboxamide] | 254
CC(=O)O[C@@H]1[C@@H](n2cc(-c3cc(F)c(F)c(F)c3)nn2)[C@@H](O)[C@@H](CO)O[C@H]1C(=O)N(c1cc(Cl)cc(Cl)c1)[C@H]1CC[C@@H]1O [Example 2A.1.2, (2R,3R,4S,5R,6R)-2-((3,5-dichlorophenyl)((1S,2S)-2-hydroxycyclobutyl)carbamoyl)-5-hydroxy-6-(hydroxymethyl)-4-(4-(3,4,5-trifluorophenyl)-1H-1,2,3-triazol-1-yl)tetrahydro-2H-pyran-3-yl acetate] | 29
CC(=O)O[C@@H]1[C@@H](n2cc(-c3cc(F)c(F)c(F)c3)nn2)[C@@H](O)[C@@H](CO)O[C@H]1C(=O)N(c1cc(Cl)cc(C#N)c1)[C@H]1CC[C@@H]1O [Example 2A.1.4, (2R,3R,4S,5R,6R)-2-((3-chloro-5-cyanophenyl)((1S,2S)-2-hydroxycyclobutyl)carbamoyl)-5-hydroxy-6-(hydroxymethyl)-4-(4-(3,4,5-trifluorophenyl)-1H-1,2,3-triazol-1-yl)tetrahydro-2H-pyran-3-yl acetate] | 36.2
CC(=O)O[C@@H]1[C@@H](n2cc(-c3cc(F)c(F)c(F)c3)nn2)[C@@H](O)[C@@H](CO)O[C@H]1C(=O)N(c1cc(Cl)cc(C#N)c1)[C@@H]1CC[C@H]1O [Example 2A.1.4R, (2R,3R,4S,5R,6R)-2-((3-chloro-5-cyanophenyl)((1R,2R)-2-hydroxycyclobutyl)carbamoyl)-5-hydroxy-6-(hydroxymethyl)-4-(4-(3,4,5-trifluorophenyl)-1H-1,2,3-triazol-1-yl)tetrahydro-2H-pyran-3-yl acetate] | 80.6
O=C([C@@H]1O[C@H](CO)[C@H](O)[C@H](n2cc(-c3cc(F)c(F)c(F)c3)nn2)[C@H]1O)N(c1cc(Cl)cc(Cl)c1)[C@H]1CC[C@@H]1O [Example 2H.1.2, (2R,3R,4S,5R,6R)-N-(3,5-dichlorophenyl)-3,5-dihydroxy-N-((1S,2S)-2-hydroxycyclobutyl)-6-(hydroxymethyl)-4-(4-(3,4,5-trifluorophenyl)-1H-1,2,3-triazol-1-yl)tetrahydro-2H-pyran-2-carboxamide] | 67.5
N#Cc1cc(Cl)cc(N(C(=O)[C@@H]2O[C@H](CO)[C@H](O)[C@H](n3cc(-c4cc(F)c(F)c(F)c4)nn3)[C@H]2O)[C@H]2CC[C@@H]2O)c1 [Example 2H.1.4, (2R,3R,4S,5R,6R)-N-(3-chloro-5-cyanophenyl)-3,5-dihydroxy-N-((1S,2S)-2-hydroxycyclobutyl)-6-(hydroxymethyl)-4-(4-(3,4,5-trifluorophenyl)-1H-1,2,3-triazol-1-yl)tetrahydro-2H-pyran-2-carboxamide] | 33.8
(2R,3R,4S,5R,6R)-N-(3,5-dichlorophenyl)-3,5-dihydroxy-N-((1S,2S)-2-hydroxycyclopentyl)-6-(hydroxymethyl)-4-(4-(3,4,5-trifluorophenyl)-1H-1,2,3-triazol-1-yl)tetrahydro-2H-pyran-2-carboxamide [Example 1H.1.2] | 29.4
